Data reported in patent US20260224524A1, “A PHARMACEUTICAL COMPOSITION TARGETING MUTANT P53 AND HER2” (DR DOZO LABORATORIES, priority 2023, published 2026).

Test system: Human Lung Cancer Cell Line A-549
Assay: Growth inhibition (% control growth, LC50, TGI, GI50) A-549
Assay type: cell-based
Settings: Homo sapiens, A549, read-out: LC50, A-549; Molar drug concentrations calculated from graph
Experimental: The therapeutic effect of SA1 (peak 5) and SA2 (peak 4) is evaluated against human lung cancer cell line A-549 by calculating the percentage growth inhibition, drug concentration of test compound needed to inhibit cell growth by 50% (GI50) values.
The therapeutic effect of SACC is evaluated against human lung cancer cell line A-549 by calculating the percentage growth inhibition, drug concentration of test compound needed to inhibit cell growth by 50% (GI50) values.

COc1cccc2c1C(=O)c1c(O)c3c(c(O)c1C2=O)C[C@@](O)(C(=O)CO)C[C@@H]3O[C@H]1C[C@H](N)[C@H](O)[C@H](C)O1 [ADR, Adriamycin] gave an LC50 of 143 µM.
